# Source: PubChem BioAssay AID256 (DTP/NCI, 2004)
# Several values for one entry are separate records, joined by “and”; a condition that tells them apart may be missing. Equal entries are not always repeated. Toxic doses and inconclusive results are not listed.
# System: CD2F1 mice, L1210 leukemia ip, survival T/C
# Experiment: NCI In Vivo Anticancer Drug Screen. Data for tumor model L1210 Leukemia (intraperitoneal) in CD2F1 (CDF1) mice
# Conditions: higher = longer survival
# How it was run: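 Implant tumor; dose compound or vehicle; measure endpoint in both groups; report treated divided by control.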
# [1] = endpoint: mean survival time, dose: 100.0 mg/kg/injection, schedule: Q01DX001 (ip), vehicle: saline with Tween-80
# [2] = endpoint: mean survival time, dose: 400.0 mg/kg/injection, schedule: Q01DX001 (ip), vehicle: saline with Tween-80
# [3] = endpoint: mean survival time, dose: 100.0 mg/kg/injection, schedule: Q01DX009 (ip), vehicle: saline with Tween-80
# [4] = endpoint: mean survival time, dose: 100.0 mg/kg/injection, schedule: Q04DX003 (ip), vehicle: saline with Tween-80
# [5] = endpoint: mean survival time, dose: 200.0 mg/kg/injection, schedule: Q01DX009 (ip), vehicle: saline with Tween-80
# [6] = endpoint: mean survival time, dose: 200.0 mg/kg/injection, schedule: Q04DX003 (ip), vehicle: saline with Tween-80
# [7] = endpoint: mean survival time, dose: 400.0 mg/kg/injection, schedule: Q01DX009 (ip), vehicle: saline with Tween-80
# [8] = endpoint: mean survival time, dose: 400.0 mg/kg/injection, schedule: Q04DX003 (ip), vehicle: saline with Tween-80
# [9] = endpoint: mean survival time, dose: 12.5 mg/kg/injection, schedule: Q01DX009 (ip), vehicle: water
# [10] = endpoint: mean survival time, dose: 25.0 mg/kg/injection, schedule: Q01DX009 (ip), vehicle: water
# [11] = endpoint: mean survival time, dose: 50.0 mg/kg/injection, schedule: Q01DX009 (ip), vehicle: water
# [12] = endpoint: mean survival time, dose: 100.0 mg/kg/injection, schedule: Q01DX009 (ip), vehicle: water
# [13] = endpoint: mean survival time, dose: 50.0 mg/kg/injection, schedule: Q01DX009 (ip), vehicle: saline with Tween-80
smiles,measurement,setting,value
O=NN(CCCl)C(=S)NCCCl,T/C,"endpoint: mean survival time, dose: 1.87 mg/kg/injection, schedule: Q01DX001 (ip), vehicle: distilled water + Tween-80",113 % of control
same,T/C,"endpoint: mean survival time, dose: 3.75 mg/kg/injection, schedule: Q01DX001 (ip), vehicle: distilled water + Tween-80",115 % of control
same,T/C,"endpoint: mean survival time, dose: 15.0 mg/kg/injection, schedule: Q01DX001 (ip), vehicle: distilled water + Tween-80",159 % of control and 215 % of control
same,T/C,"endpoint: mean survival time, dose: 30.0 mg/kg/injection, schedule: Q01DX001 (ip), vehicle: distilled water + Tween-80",318 % of control
CCCCCC(O)C1C(=O)OC(C)C(O)/C=C/C=C/C=C/C=C\C=C(\C)C(O)CC(O)CC(O)CC(O)CC(O)CC(O)CC1O (stereo not given),T/C,"endpoint: median survival time, dose: 3.12 mg/kg/injection, schedule: Q01DX009 (ip), vehicle: distilled water + alcohol",104 % of control
same,T/C,"endpoint: median survival time, dose: 6.25 mg/kg/injection, schedule: Q01DX009 (ip), vehicle: distilled water + alcohol",104 % of control
same,T/C,"endpoint: median survival time, dose: 12.5 mg/kg/injection, schedule: Q01DX009 (ip), vehicle: distilled water + alcohol",104 % of control
same,T/C,"endpoint: median survival time, dose: 25.0 mg/kg/injection, schedule: Q01DX009 (ip), vehicle: distilled water + alcohol",100 % of control
OC1C=C(c2ccccc2)C(c2ccccc2)C(c2ccccc2)C1 (stereo not given),T/C,[1],89 % of control
same,T/C,[2],101 % of control
CCOc1ccc(N=Nc2sc(N)nc2-c2cccc([N+](=O)[O-])c2)cc1,T/C,[1],89 % of control
same,T/C,"endpoint: mean survival time, dose: 200.0 mg/kg/injection, schedule: Q01DX001 (ip), vehicle: saline with Tween-80",96 % of control
same,T/C,[2],96 % of control
CCCCOc1nc(-c2ccncc2)nc(N(C)C)n1,T/C,"endpoint: mean survival time, dose: 16.0 mg/kg/injection, schedule: Q04DX002 (ip), vehicle: saline",92 % of control
same,T/C,"endpoint: mean survival time, dose: 31.0 mg/kg/injection, schedule: Q04DX002 (ip), vehicle: saline",92 % of control
same,T/C,"endpoint: mean survival time, dose: 63.0 mg/kg/injection, schedule: Q04DX002 (ip), vehicle: saline",100 % of control
same,T/C,"endpoint: mean survival time, dose: 100.0 mg/kg/injection, schedule: Q01DX002 (ip), vehicle: saline",100 % of control
O=C1NC(=O)C2CCCCC12 (stereo not given),T/C,[3],100 % of control
same,T/C,[4],97 % of control
same,T/C,[5],95 % of control
same,T/C,[6],101 % of control
same,T/C,[7],95 % of control
same,T/C,[8],95 % of control
O=CN(O)CC(=O)O.[Zn],T/C,"endpoint: mean survival time, dose: 12.5 mg/kg/injection, schedule: Q04DX003 (ip), vehicle: saline",96 % of control
same,T/C,"endpoint: mean survival time, dose: 25.0 mg/kg/injection, schedule: Q04DX003 (ip), vehicle: saline",95 % of control
Cc1[nH]c2ccc([N+](=O)[O-])cc2c1CN(C)C,T/C,"endpoint: mean survival time, dose: 75.0 mg/kg/injection, schedule: Q01DX001 (ip), vehicle: saline",96 % of control
same,T/C,"endpoint: mean survival time, dose: 150.0 mg/kg/injection, schedule: Q01DX001 (ip), vehicle: saline",100 % of control
[O-][n+]1ccccc1C[P+](c1ccccc1)(c1ccccc1)c1ccccc1,T/C,[9],101 % of control
same,T/C,[10],100 % of control
same,T/C,[11],105 % of control
same,T/C,[12],96 % of control
CCOC(=O)C(C(C)=O)C(C)C (stereo not given),T/C,[10],95 % of control
same,T/C,[11],102 % of control
same,T/C,[12],102 % of control
same,T/C,"endpoint: mean survival time, dose: 200.0 mg/kg/injection, schedule: Q01DX009 (ip), vehicle: water",97 % of control
same,T/C,"endpoint: mean survival time, dose: 400.0 mg/kg/injection, schedule: Q01DX009 (ip), vehicle: water",97 % of control
N#CNC=Nc1ccccc1,T/C,"endpoint: mean survival time, dose: 100.0 mg/kg/injection, schedule: Q04DX003 (ip), vehicle: saline",95 % of control
same,T/C,"endpoint: mean survival time, dose: 200.0 mg/kg/injection, schedule: Q04DX003 (ip), vehicle: saline",95 % of control
same,T/C,"endpoint: mean survival time, dose: 400.0 mg/kg/injection, schedule: Q04DX003 (ip), vehicle: saline",100 % of control
COC(=O)c1cc(-c2ccccc2)n(-c2ccccc2)c1-c1ccccc1,T/C,"endpoint: mean survival time, dose: 100.0 mg/kg/injection, schedule: Q01DX001 (ip), vehicle: Klucel (hydroxypropylcellulose) (HPC)",94 % of control
same,T/C,"endpoint: mean survival time, dose: 100.0 mg/kg/injection, schedule: Q04DX002 (ip), vehicle: saline with Tween-80",90 % of control
same,T/C,"endpoint: mean survival time, dose: 200.0 mg/kg/injection, schedule: Q01DX001 (ip), vehicle: Klucel (hydroxypropylcellulose) (HPC)",89 % of control
same,T/C,"endpoint: mean survival time, dose: 200.0 mg/kg/injection, schedule: Q04DX002 (ip), vehicle: saline with Tween-80",87 % of control
same,T/C,"endpoint: mean survival time, dose: 400.0 mg/kg/injection, schedule: Q01DX001 (ip), vehicle: Klucel (hydroxypropylcellulose) (HPC)",89 % of control
same,T/C,"endpoint: mean survival time, dose: 400.0 mg/kg/injection, schedule: Q04DX002 (ip), vehicle: saline with Tween-80",94 % of control
N=C(N)c1nn(C2OC(CO)C(O)C2O)c2nc[nH]c(=O)c12 (stereo not given),T/C,"endpoint: median survival time, dose: 3.12 mg/kg/injection, schedule: Q01DX005 (ip), vehicle: Klucel + Tween-80",122 % of control
same,T/C,"endpoint: median survival time, dose: 12.5 mg/kg/injection, schedule: Q01DX005 (ip), vehicle: Klucel + Tween-80",153 % of control
same,T/C,"endpoint: median survival time, dose: 25.0 mg/kg/injection, schedule: Q01DX005 (ip), vehicle: Klucel + Tween-80",120 % of control and 89 % of control
O=C(Nc1ccccc1C(F)(F)F)Nc1cccc2ccccc12,T/C,[4],95 % of control
same,T/C,[6],104 % of control
same,T/C,[8],95 % of control
COC(=O)C(Cl)(Cl)N=Nc1c(Cl)cc(Cl)c(C)c1Cl,T/C,"endpoint: mean survival time, dose: 6.25 mg/kg/injection, schedule: Q01DX009 (ip), vehicle: saline with Tween-80",96 % of control
same,T/C,"endpoint: mean survival time, dose: 6.25 mg/kg/injection, schedule: Q01DX009 (ip), vehicle: saline",93 % of control
same,T/C,"endpoint: mean survival time, dose: 12.5 mg/kg/injection, schedule: Q01DX009 (ip), vehicle: saline with Tween-80",100 % of control
same,T/C,"endpoint: mean survival time, dose: 12.5 mg/kg/injection, schedule: Q01DX009 (ip), vehicle: saline",98 % of control
same,T/C,"endpoint: mean survival time, dose: 25.0 mg/kg/injection, schedule: Q01DX009 (ip), vehicle: saline with Tween-80",97 % of control
same,T/C,"endpoint: mean survival time, dose: 25.0 mg/kg/injection, schedule: Q01DX009 (ip), vehicle: saline",93 % of control
same,T/C,[13],94 % of control
same,T/C,"endpoint: mean survival time, dose: 50.0 mg/kg/injection, schedule: Q01DX009 (ip), vehicle: saline",98 % of control
same,T/C,[3],102 % of control
same,T/C,"endpoint: mean survival time, dose: 100.0 mg/kg/injection, schedule: Q01DX009 (ip), vehicle: saline",90 % of control
same,T/C,[5],86 % of control
same,T/C,"endpoint: mean survival time, dose: 200.0 mg/kg/injection, schedule: Q01DX009 (ip), vehicle: saline",86 % of control
CCOC(=O)C(CC1OCCO1)C1=NC(C)(C)CC(C)O1 (stereo not given),T/C,"endpoint: mean survival time, dose: 100.0 mg/kg/injection, schedule: Q01DX001 (ip), vehicle: acetone",93 % of control
same,T/C,"endpoint: mean survival time, dose: 200.0 mg/kg/injection, schedule: Q01DX001 (ip), vehicle: acetone",94 % of control
Cc1cc(=O)[nH]c(N/N=C/c2ccc(N(C)C)cc2)n1,T/C,[3],91 % of control
same,T/C,[4],104 % of control
same,T/C,[5],88 % of control
same,T/C,[6],95 % of control
same,T/C,[7],86 % of control
same,T/C,[8],92 % of control
CCN(CC)C(=O)c1cc[n+](Cc2ccc(Cl)c(Cl)c2)cc1,T/C,[13],102 % of control
same,T/C,[3],105 % of control
same,T/C,[4],100 % of control
same,T/C,[6],102 % of control
O=c1nc(NCc2cccs2)ccn1C1OC(CO)C(O)C1O (stereo not given),T/C,"endpoint: median survival time, dose: 12.5 mg/kg/injection, schedule: Q01DX005 (ip), vehicle: water",104 % of control
same,T/C,"endpoint: median survival time, dose: 25.0 mg/kg/injection, schedule: Q01DX005 (ip), vehicle: water",103 % of control
same,T/C,"endpoint: median survival time, dose: 50.0 mg/kg/injection, schedule: Q01DX005 (ip), vehicle: water",103 % of control
same,T/C,"endpoint: median survival time, dose: 100.0 mg/kg/injection, schedule: Q01DX005 (ip), vehicle: water",102 % of control
same,T/C,"endpoint: median survival time, dose: 200.0 mg/kg/injection, schedule: Q01DX005 (ip), vehicle: water",102 % of control
COc1ccccc1C(=O)C(=O)c1ccccc1OC,T/C,[4],100 % of control
same,T/C,[6],96 % of control
same,T/C,[8],100 % of control
CN(C)N=Nc1ccc(Cl)cc1C(=O)O,T/C,"endpoint: mean survival time, dose: 266.0 mg/kg/injection, schedule: Q04DX003 (ip), vehicle: other",114 % of control
same,T/C,"endpoint: mean survival time, dose: 400.0 mg/kg/injection, schedule: Q04DX003 (ip), vehicle: other",120 % of control
COc1cc2c(C)nc3c4cc5c(cc4ccc3c2cc1OC)OCO5,T/C,"endpoint: mean survival time, dose: 3.13 mg/kg/injection, schedule: Q01DX009 (ip), vehicle: water",97 % of control
same,T/C,"endpoint: mean survival time, dose: 6.25 mg/kg/injection, schedule: Q01DX009 (ip), vehicle: water",92 % of control
same,T/C,[9],90 % of control
same,T/C,[10],95 % of control
same,T/C,[11],93 % of control
